Key:
[1] = tested on: Blumeria graminis f.sp. hordei; assay: Blumeria graminis test (barley) / protective; format: in vivo; settings: 500 ppm active ingredient, protective spray on young barley plants, evaluation 7 days after inoculation; 0% = control, 100% = no infection
Protocol: Blumeria graminis Test (Barley)/Protective
(§1) • Solvent: 49 parts by weight of N,N-dimethylacetamide • Emulsifier: 1 part by weight of alkylaryl polyglycol ether
To produce an appropriate active ingredient formulation, 1 part by weight of active ingredient is mixed with the specified amounts of solvent and emulsifier, and the concentrate is diluted with water to the desired concentration. To test for protective activity, young plants are sprayed with the formulation of active ingredient at the stated application rate. After the spray coating has dried on, the plants are dusted with spores of Blumeria graminis f.sp. hordei. The plants are placed in a greenhouse at a temperature of about 18° C. and a relative air humidity of about 80% to promote the development of mildew pustules. Evaluation follows 7 days after the inoculation. 0% means an efficacy which corresponds to that of the control, whereas an efficacy of 100% means that no infection is observed.

[2] = tested on: Leptosphaeria nodorum; assay: Leptosphaeria nodorum test (wheat) / protective; format: in vivo; settings: 500 ppm active ingredient, protective spray on young wheat plants, evaluation 8 days after inoculation; 0% = control, 100% = no infection
Protocol: Leptosphaeria nodorum Test (Wheat)/Protective
as §1
To produce an appropriate active ingredient formulation, I part by weight of active ingredient is mixed with the specified amounts of solvent and emulsifier, and the concentrate is diluted with water to the desired concentration. To test for protective activity, young plants are sprayed with the formulation of active ingredient at the stated application rate. After the spray coating has dried on, the plants are sprayed with spores with a spore suspension of Leptosphaeria nodorum. The plants remain in an incubation cabin at 20° C. and 100% relative air humidity for 48 hours. The plants are placed in a greenhouse at a temperature of about 22° C. and a relative air humidity of about 80%. Evaluation follows 8 days after the inoculation. 0% means an efficacy which corresponds to that of the control, whereas an efficacy of 100% means that no infection is observed.

[3] = logP by reversed-phase HPLC (EEC Directive 79/831 Annex V.A8); format: physicochemical; settings: method [a]: LC-MS, acidic range pH 2.7, 0.1% aqueous formic acid / acetonitrile, linear gradient 10% to 95% acetonitrile
Protocol: The logP values were measured in accordance with EEC Directive 79/831 Annex V.A8 by HPLC (High Performance Liquid Chromatography) using reversed-phase columns (C 18) by the following methods:
[a] The LC-MS determination in the acidic range is effected at pH 2.7 with 0.1% aqueous formic acid and acetonitrile (contains 0.1% formic acid) as eluents; linear gradient from 10% acetonitrile to 95% acetonitrile.

[4] = tested on: Alternaria solani; assay: Alternaria test (tomato) / protective; format: in vivo; settings: 500 ppm active ingredient, protective spray on young tomato plants, evaluation 7 days after inoculation; 0% = control, 100% = no infection
Protocol: Alternaria Test (Tomato)/Protective
(§2) • Solvent: 49 parts by weight of N,N-dimethylformamide • Emulsifier: 1 part by weight of alkylaryl polyglycol ether
To produce an appropriate active ingredient formulation, 1 part by weight of active ingredient is mixed with the specified amounts of solvent and emulsifier, and the concentrate is diluted with water to the desired concentration. To test for protective activity, young tomato plants are sprayed with the active ingredient formulation at the stated application rate. One day after the treatment, the plants are inoculated with a spore suspension of Alternaria solani and are then left to stand at 100% relative humidity and 22° C. for 24 h. Subsequently, the plants are left to stand at 96% relative air humidity and a temperature of 20° C. Evaluation follows 7 days after the […]. 0% means an efficacy which corresponds to that of the control, whereas an efficacy of 100% means that no infection is observed.

[5] = tested on: Sphaerotheca fuliginea; assay: Sphaerotheca test (cucumber) / protective; format: in vivo; settings: 500 ppm active ingredient, protective spray on young cucumber plants, evaluation 7 days after inoculation; 0% = control, 100% = no infection
Protocol: Sphaerotheca Test (Cucumber)/Protective
as §2
To produce an appropriate active ingredient formulation, 1 part by weight of active ingredient is mixed with the specified amounts of solvent and emulsifier, and the concentrate is diluted with water to the desired concentration. To test for protective activity, young cucumber plants are sprayed with the formulation of active ingredient at the stated application rate. 1 day after the treatment, the plants are inoculated with a spore suspension of Sphaerotheca fuliginea. The plants are then placed in a greenhouse at 70% relative air humidity and a temperature of 23° C. Evaluation follows 7 days after the inoculation. 0% means an efficacy which corresponds to that of the control, whereas an efficacy of 100% means that no infection is observed.

| chromatographic logP ([3]; reversed-phase C18 HPLC column) | logP ([3]; C18 reversed phase) | Structure (SMILES) | efficacy [1] | efficacy [2] | efficacy [4] | efficacy [5] |
| --- | --- | --- | --- | --- | --- | --- |
|  |  | CC(C)(C)C(O)(CSc1ccc(Br)cc1)c1cncs1 (stereo not shown) [Compound 1, 1-[(4-bromophenyl)sulphanyl]-3,3-dimethyl-2-(1,3-thiazol-5-yl)butan-2-ol] | 89% | 92% |  |  |
| 3.27 |  | CC(CF)(CF)C(O)(CSc1ccc(Br)cc1)c1cncs1 (stereo not shown) [Compound 3] | 100% | 100% |  |  |
|  | log p 3.76^[a] | CC(C)(C)C(O)(CSc1ccc(C(F)(F)F)cc1)c1cncs1 (stereo not shown) [Compound 57] | 80% | 90% | 100% | 80% |

— US8445691B2, “Heterocyclic thiosubstituted alkanol derivatives” (Bayer CropScience AG, priority 2010, dated 2013)
